Experimental data as given in article PMC11522901, “Translation of Deoxyribonucleic Acid into Synthetic Alpha Helical Peptides for Darwinian Evolution” (JACS Au, 2024).
*1 amine or outer side, *2 acyl side, *3 side chain or, on linkers, in order; H or OH if unused. Where a SMILES comes first, the peptide text is derived from it. Bridges are numbered along the chain shown (N, C = ends). [ ]: non-standard residue; d: D form. Diglycolyl = O=C(COCC(=O)[*:2])[*:1]; Cba = N[C@@H](CC1CCC1)C(=O)O; Nle = CCCC[C@H](N)C(=O)O

What follows are compounds tested against T1, MDM2 (Homo sapiens, UniProt Q00987) (assay: Surface plasmon resonance (SPR) against captured GST-MDM2). Conditions: SPR Biacore T200, 25 °C, PBS-P+; GST-MDM2 captured via anti-GST antibody on CM5 chip; 2-fold dilutions 250 nM to 3.91 nM; association 250 s, dissociation 400 s.
T1 construct: made in house
Assay type: binding
Protocol: SPR experiments were performed on a Biacore T200 instrument (GE Healthcare) at 25 °C in PBS-P+ buffer (10× stock; Cytiva Life Sciences #28995084). One mL PP 96-well plates (Greiner #780201) were used for dilution directly in the plates. Anti-GST antibody (Cytiva #27457701) was chemically immobilized on a CM5 series S sensor chip (Cytiva Life Sciences #29149604) by EDC/NHS-mediated coupling. For this, an amine coupling kit (Cytiva Life Sciences #BR100633) and the recommended protocol were followed with the following specifications: 20 μg/mL of antibody diluted in 10 mM NaAc pH 5.0 buffer flowed over both flow channels for 600 s (flow rate 10 μL min^–1).
Kinetic measurements consisted of ligand capture of GST-MDM2 (200 nM, 350 s injection, flow rate 10 μL min^–1, stabilization 60 s), followed by injections (association, 250 s; dissociation, 400 s; flow rate, 30 μL min^–1) of decreasing concentrations of compounds (2-fold cascade dilutions from the starting concentration). The chip was regenerated between cycles by one injection of regeneration solution (10 mM glycine-HCl at pH 1.5) for 10 s at a flow rate of 30 μL min^–1, followed by a 120 s stabilization period. Binding was measured as resonance units over time after blank subtraction, and the data were interpreted using Biacore T200 software (version 3.2). The KD values were calculated based on steady-state affinity (1:1 binding). […]
5. Surface Plasmon Resonance Results […]
dotted lines representing the fittings from which the kinetic values are calculated. The compounds […]
shown in Figure 6 are tested at 250 nM (highest concentration) with a 2-fold dilution series until 3.91 nM (lowest concentration).
SPR Curves of compounds 4.1 and 4.4
4.1: Concentrations tested: 125 nM to 3.91 nM (2-fold dilutions) – KD: ND
Supplementary Figure 4. SPR curve of compound 4.1 against MDM2

T1 sequence (Q00987 whole entry, species assumed): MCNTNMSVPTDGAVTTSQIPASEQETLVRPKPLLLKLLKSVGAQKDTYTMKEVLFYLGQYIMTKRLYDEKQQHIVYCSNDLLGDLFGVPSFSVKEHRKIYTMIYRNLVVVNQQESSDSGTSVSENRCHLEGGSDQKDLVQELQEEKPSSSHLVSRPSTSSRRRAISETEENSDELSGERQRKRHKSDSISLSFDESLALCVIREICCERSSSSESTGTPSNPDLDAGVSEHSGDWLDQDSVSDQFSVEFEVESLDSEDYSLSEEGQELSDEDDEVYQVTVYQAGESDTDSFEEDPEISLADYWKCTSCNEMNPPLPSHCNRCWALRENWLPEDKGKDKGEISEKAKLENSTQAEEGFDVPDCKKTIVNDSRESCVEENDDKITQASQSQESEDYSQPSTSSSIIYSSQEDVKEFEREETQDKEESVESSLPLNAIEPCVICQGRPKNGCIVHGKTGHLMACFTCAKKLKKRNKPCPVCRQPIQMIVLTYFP

**Q.** With CCCC[C@@H]1NC(=O)[C@H](CC2CCC2)NC(=O)[C@H](CCC(N)=O)NC(=O)[C@H](C)NC(=O)[C@H](Cc2c[nH]c3ccccc23)NC(=O)[C@H](Cc2ccc(O)cc2)NC(=O)[C@H](CCC(N)=O)NC(=O)[C@H](CCCC)NC(=O)[C@H](Cc2ccccc2)NC(=O)[C@H]([C@@H](C)O)NC(=O)[C@H](CC(C)C)NC(=O)CNC(=O)COCC(=O)NCCCC[C@@H](C(=O)N[C@@H](CCCNC(=N)N)C(N)=O)NC(=O)CNC(=O)[C@H](CO)NC1=O [1.1 (Cyclic)] (GLTF[Nle]QYWAQ[Cba][Nle]SGKR-NH2; linker N-15 via Diglycolyl; C-terminus assumed) as the compound, how does the koff read?
**A.** 0.0024 s⁻¹

**Q.** What about the kon of the same compound?
**A.** 320000 M⁻¹ s⁻¹

**Q.** With CCCC[C@H](NC(=O)[C@H](CC1CCC1)NC(=O)[C@H](CCC(N)=O)NC(=O)[C@H](C)NC(=O)[C@H](Cc1c[nH]c2ccccc12)NC(=O)[C@H](Cc1ccc(O)cc1)NC(=O)[C@H](CCC(N)=O)NC(=O)[C@H](CCCC)NC(=O)[C@H](Cc1ccccc1)NC(=O)[C@@H](NC(=O)[C@H](CC(C)C)NC(=O)CNC(C)=O)[C@@H](C)O)C(=O)N[C@@H](CO)C(=O)NCC(=O)N[C@@H](CCCNC(=N)N)C(N)=O [1.1 (Linear)] (Ac-GLTF[Nle]QYWAQ[Cba][Nle]SGR-NH2; N-terminus and C-terminus assumed) as the compound, how does the koff read?
**A.** 0.0022 s⁻¹

**Q.** What about the kon of the same compound?
**A.** 73000 M⁻¹ s⁻¹

**Q.** For CCCC[C@H](NC(=O)[C@H](CC1CCC1)NC(=O)[C@H](CCC(N)=O)NC(=O)[C@H](C)NC(=O)[C@H](Cc1c[nH]c2ccccc12)NC(=O)[C@H](Cc1ccc(O)cc1)NC(=O)[C@H](CCC(N)=O)NC(=O)[C@H](CCCC)NC(=O)[C@H](Cc1ccccc1)NC(=O)[C@@H](NC(=O)[C@H](CC(C)C)NC(=O)CNC(=O)CN(CCNC(=O)CN(CCNC(=O)CN(CCNC(=O)CN(CCNC(=O)[C@H](CCCNC(=N)N)NC(=O)COCCOCCNC(=O)[C@H](CCCNC(=N)N)NC(=O)CN(CCNC(=O)CN(CCNC(=O)CN(CCNC(=O)CN(CCNC(=O)CN(CCNC(=O)CN(CCNC(=O)CN(CCNC(=O)CN(CCNC(=O)[C@H](CCCNC(=N)N)NC(C)=O)C(=O)Cn1cnc2c(=O)[nH]c(N)nc21)C(=O)Cn1ccc(N)nc1=O)C(=O)Cn1ccc(N)nc1=O)C(=O)Cn1cnc2c(=O)[nH]c(N)nc21)C(=O)Cn1cc(C)c(=O)[nH]c1=O)C(=O)Cn1cnc2c(N)ncnc21)C(=O)Cn1cnc2c(=O)[nH]c(N)nc21)C(=O)Cn1cnc2c(=O)[nH]c(N)nc21)C(=O)Cn1ccc(N)nc1=O)C(=O)Cn1ccc(N)nc1=O)C(=O)Cn1cc(C)c(=O)[nH]c1=O)C(=O)Cn1cnc2c(N)ncnc21)[C@@H](C)O)C(=O)N[C@@H](CO)C(=O)NCC(=O)NCCN(CC(=O)NCCN(CC(=O)NCCN(CC(=O)NCCN(CC(=O)N[C@@H](CCCNC(=N)N)C(N)=O)C(=O)Cn1ccc(N)nc1=O)C(=O)Cn1cnc2c(=O)[nH]c(N)nc21)C(=O)Cn1cnc2c(=O)[nH]c(N)nc21)C(=O)Cn1ccc(N)nc1=O [1.1 (PNA)], which koff is on record?
**A.** 0.0014 s⁻¹

**Q.** And the kon?
**A.** 1.9e+06 M⁻¹ s⁻¹

**Q.** For CCCC[C@H](NC(=O)[C@H](CC1CCC1)NC(=O)[C@H](CCC(N)=O)NC(=O)[C@H](C)NC(=O)[C@H](Cc1c[nH]c2ccccc12)NC(=O)[C@H](Cc1ccc(O)cc1)NC(=O)[C@H](CCC(N)=O)NC(=O)[C@H](CCCC)NC(=O)[C@H](Cc1ccc(F)c(F)c1)NC(=O)[C@@H](NC(=O)[C@H](CC(C)C)NC(=O)CNC(=O)CN(CCNC(=O)CN(CCNC(=O)CN(CCNC(=O)CN(CCNC(=O)[C@H](CCCNC(=N)N)NC(=O)COCCOCCNC(=O)[C@H](CCCNC(=N)N)NC(=O)CN(CCNC(=O)CN(CCNC(=O)CN(CCNC(=O)CN(CCNC(=O)CN(CCNC(=O)CN(CCNC(=O)CN(CCNC(=O)CN(CCNC(=O)[C@H](CCCNC(=N)N)NC(C)=O)C(=O)Cn1cnc2c(=O)[nH]c(N)nc21)C(=O)Cn1ccc(N)nc1=O)C(=O)Cn1ccc(N)nc1=O)C(=O)Cn1cnc2c(=O)[nH]c(N)nc21)C(=O)Cn1cc(C)c(=O)[nH]c1=O)C(=O)Cn1cnc2c(N)ncnc21)C(=O)Cn1cnc2c(=O)[nH]c(N)nc21)C(=O)Cn1cnc2c(=O)[nH]c(N)nc21)C(=O)Cn1ccc(N)nc1=O)C(=O)Cn1ccc(N)nc1=O)C(=O)Cn1cc(C)c(=O)[nH]c1=O)C(=O)Cn1cnc2c(N)ncnc21)[C@@H](C)O)C(=O)N[C@@H](CO)C(=O)NCC(=O)NCCN(CC(=O)NCCN(CC(=O)NCCN(CC(=O)NCCN(CC(=O)N[C@@H](CCCNC(=N)N)C(N)=O)C(=O)Cn1ccc(N)nc1=O)C(=O)Cn1cnc2c(=O)[nH]c(N)nc21)C(=O)Cn1cnc2c(=O)[nH]c(N)nc21)C(=O)Cn1ccc(N)nc1=O [1.2 (PNA)], which koff is on record?
**A.** 0.002 s⁻¹

**Q.** And the kon?
**A.** 1.2e+06 M⁻¹ s⁻¹

**Q.** How did the koff turn out when CCCC[C@H](NC(=O)[C@H](CC(C)C)NC(=O)[C@H](CCC(N)=O)NC(=O)[C@H](C)NC(=O)[C@H](Cc1c[nH]c2ccccc12)NC(=O)[C@H](Cc1ccc(O)cc1)NC(=O)[C@H](CCC(N)=O)NC(=O)[C@H](CCCC)NC(=O)[C@H](Cc1ccccc1)NC(=O)[C@@H](NC(=O)[C@H](CC(C)C)NC(=O)CNC(=O)CN(CCNC(=O)CN(CCNC(=O)CN(CCNC(=O)CN(CCNC(=O)[C@H](CCCNC(=N)N)NC(=O)COCCOCCNC(=O)[C@H](CCCNC(=N)N)NC(=O)CN(CCNC(=O)CN(CCNC(=O)CN(CCNC(=O)CN(CCNC(=O)CN(CCNC(=O)CN(CCNC(=O)CN(CCNC(=O)CN(CCNC(=O)[C@H](CCCNC(=N)N)NC(C)=O)C(=O)Cn1cnc2c(=O)[nH]c(N)nc21)C(=O)Cn1ccc(N)nc1=O)C(=O)Cn1ccc(N)nc1=O)C(=O)Cn1cnc2c(=O)[nH]c(N)nc21)C(=O)Cn1cc(C)c(=O)[nH]c1=O)C(=O)Cn1cnc2c(N)ncnc21)C(=O)Cn1cnc2c(=O)[nH]c(N)nc21)C(=O)Cn1cnc2c(=O)[nH]c(N)nc21)C(=O)Cn1ccc(N)nc1=O)C(=O)Cn1ccc(N)nc1=O)C(=O)Cn1cc(C)c(=O)[nH]c1=O)C(=O)Cn1cnc2c(N)ncnc21)[C@@H](C)O)C(=O)N[C@@H](CO)C(=O)NCC(=O)NCCN(CC(=O)NCCN(CC(=O)NCCN(CC(=O)NCCN(CC(=O)N[C@@H](CCCNC(=N)N)C(N)=O)C(=O)Cn1ccc(N)nc1=O)C(=O)Cn1cnc2c(=O)[nH]c(N)nc21)C(=O)Cn1cnc2c(=O)[nH]c(N)nc21)C(=O)Cn1ccc(N)nc1=O [2.1 (PNA)] was run?
**A.** 0.0021 s⁻¹

**Q.** What about the kon of the same compound?
**A.** 1e+06 M⁻¹ s⁻¹

**Q.** With CCCC[C@H](NC(=O)[C@H](CC(C)C)NC(=O)[C@H](CCC(N)=O)NC(=O)[C@H](C)NC(=O)[C@H](Cc1c[nH]c2ccccc12)NC(=O)[C@H](Cc1ccc(O)cc1)NC(=O)[C@H](CCC(N)=O)NC(=O)[C@H](CCCC)NC(=O)[C@H](Cc1ccc(F)c(F)c1)NC(=O)[C@@H](NC(=O)[C@H](CC(C)C)NC(=O)CNC(=O)CN(CCNC(=O)CN(CCNC(=O)CN(CCNC(=O)CN(CCNC(=O)[C@H](CCCNC(=N)N)NC(=O)COCCOCCNC(=O)[C@H](CCCNC(=N)N)NC(=O)CN(CCNC(=O)CN(CCNC(=O)CN(CCNC(=O)CN(CCNC(=O)CN(CCNC(=O)CN(CCNC(=O)CN(CCNC(=O)CN(CCNC(=O)[C@H](CCCNC(=N)N)NC(C)=O)C(=O)Cn1cnc2c(=O)[nH]c(N)nc21)C(=O)Cn1ccc(N)nc1=O)C(=O)Cn1ccc(N)nc1=O)C(=O)Cn1cnc2c(=O)[nH]c(N)nc21)C(=O)Cn1cc(C)c(=O)[nH]c1=O)C(=O)Cn1cnc2c(N)ncnc21)C(=O)Cn1cnc2c(=O)[nH]c(N)nc21)C(=O)Cn1cnc2c(=O)[nH]c(N)nc21)C(=O)Cn1ccc(N)nc1=O)C(=O)Cn1ccc(N)nc1=O)C(=O)Cn1cc(C)c(=O)[nH]c1=O)C(=O)Cn1cnc2c(N)ncnc21)[C@@H](C)O)C(=O)N[C@@H](CO)C(=O)NCC(=O)NCCN(CC(=O)NCCN(CC(=O)NCCN(CC(=O)NCCN(CC(=O)N[C@@H](CCCNC(=N)N)C(N)=O)C(=O)Cn1ccc(N)nc1=O)C(=O)Cn1cnc2c(=O)[nH]c(N)nc21)C(=O)Cn1cnc2c(=O)[nH]c(N)nc21)C(=O)Cn1ccc(N)nc1=O [2.2 (PNA)] as the compound, how does the koff read?
**A.** 0.0029 s⁻¹

**Q.** What about the kon of the same compound?
**A.** 830000 M⁻¹ s⁻¹

Same assay, conditions: linear peptide without PNA versus PNA-constrained 1.1; 30 versus 0.7 nM

**Q.** Which loss of binding does the source give for CCCC[C@H](NC(=O)[C@H](CC1CCC1)NC(=O)[C@H](CCC(N)=O)NC(=O)[C@H](C)NC(=O)[C@H](Cc1c[nH]c2ccccc12)NC(=O)[C@H](Cc1ccc(O)cc1)NC(=O)[C@H](CCC(N)=O)NC(=O)[C@H](CCCC)NC(=O)[C@H](Cc1ccccc1)NC(=O)[C@@H](NC(=O)[C@H](CC(C)C)NC(=O)CNC(C)=O)[C@@H](C)O)C(=O)N[C@@H](CO)C(=O)NCC(=O)N[C@@H](CCCNC(=N)N)C(N)=O [1.1 (Linear)] (Ac-GLTF[Nle]QYWAQ[Cba][Nle]SGR-NH2; N-terminus and C-terminus assumed) here?
**A.** 40 fold
